Measurements from US9303012B2, “Pyridine-2-amides useful as CB2 agonists” (Hoffmann-La Roche Inc., priority 2012, dated 2016).
pEC50: −log10 of the molar value.

Assays:
human CB2 receptors = human CB2 receptors (Homo sapiens (Human), UniProt P34972); experiment: functional cAMP assay, CHO cells expressing human CB2 receptors; format: cell-based
Protocol: (§1) CHO cells expressing human CB1 or CB2 receptors are seeded 17-24 hours prior to the experiment 50.000 cells per well in a black 96 well plate with flat clear bottom (Corning Costar #3904) in DMEM (Invitrogen No. 31331), 1×HT supplement, with 10% fetal calf serum and incubated at 5% CO2 and 37° C. in a humidified incubator. The growth medium was exchanged with Krebs Ringer Bicarbonate buffer with 1 mM IBMX and incubated at 30° C. for 30 min. Compounds were added to a final assay volume of 100 μl and incubated for 30 min at 30° C. Using the cAMP-Nano-TRF detection kit the assay (Roche Diagnostics) was stopped by the addition of 50 μl lysis reagent (Tris, NaCl, 1.5% Triton X100, 2.5% NP40, 10% NaN3) and 50 μl detection solutions (20 μM mAb Alexa700-cAMP 1:1, and 48 μM Ruthenium-2-AHA-cAMP) and shaken for 2 h at room temperature. The time-resolved energy transfer is measured by a TRF reader (Evotec Technologies GmbH), equipped with a ND:YAG laser as excitation source. The plate is measured twice with the excitation at 355 nm and at the emission with a delay of 100 ns and a gate of 100 ns, total exposure time 10 s at 730 (bandwidth 30 nm) or 645 nm (bandwidth 75 nm), respectively. The FRET signal is calculated as follows: FRET=T730-Alexa730-P(T645-B645) with P=Ru730-B730/Ru645-B645, where T730 is the test well measured at 730 nM, T645 is the test well measured at 645 nm, B730 and B645 are the buffer controls at 730 nm and 645 nm, respectively. cAMP content is determined from the function of a standard curve spanning from 10 μM to 0.13 nM cAMP.
(§2) EC50 values were determined using Activity Base analysis (ID Business Solution, Limited). The EC50 values for a wide range of cannabinoid agonists generated from this assay were in agreement with the values published in the scientific literature.

human CB1 receptors = human CB1 receptors (Homo sapiens (Human), UniProt P21554); experiment: functional cAMP assay, CHO cells expressing human CB1 receptors; format: cell-based
Protocol: as §1, §2

Sequence of human CB1 receptors (P21554 whole entry): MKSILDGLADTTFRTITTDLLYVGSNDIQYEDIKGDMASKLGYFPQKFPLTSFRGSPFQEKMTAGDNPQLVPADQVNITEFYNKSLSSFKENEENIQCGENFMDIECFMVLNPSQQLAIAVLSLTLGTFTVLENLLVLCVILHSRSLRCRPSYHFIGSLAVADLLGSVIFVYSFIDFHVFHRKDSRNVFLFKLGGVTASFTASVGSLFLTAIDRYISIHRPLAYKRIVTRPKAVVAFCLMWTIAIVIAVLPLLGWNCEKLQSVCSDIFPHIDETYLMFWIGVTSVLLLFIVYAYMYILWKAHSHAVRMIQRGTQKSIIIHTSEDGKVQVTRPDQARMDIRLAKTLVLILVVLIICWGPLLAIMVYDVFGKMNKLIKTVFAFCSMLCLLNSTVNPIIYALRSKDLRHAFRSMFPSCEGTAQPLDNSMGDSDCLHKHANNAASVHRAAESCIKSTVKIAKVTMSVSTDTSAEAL
Sequence of human CB2 receptors (P34972 whole entry): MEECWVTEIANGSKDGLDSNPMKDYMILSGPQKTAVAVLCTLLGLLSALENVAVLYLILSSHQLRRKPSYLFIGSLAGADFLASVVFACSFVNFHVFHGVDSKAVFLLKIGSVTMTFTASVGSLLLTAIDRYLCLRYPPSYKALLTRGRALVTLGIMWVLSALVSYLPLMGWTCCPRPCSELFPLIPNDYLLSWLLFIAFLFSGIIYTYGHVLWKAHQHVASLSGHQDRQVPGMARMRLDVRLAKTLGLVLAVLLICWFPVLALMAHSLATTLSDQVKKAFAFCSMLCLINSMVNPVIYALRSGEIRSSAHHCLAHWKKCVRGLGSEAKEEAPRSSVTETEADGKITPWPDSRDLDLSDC

Row | SMILES | pEC50 (human CB2 receptors) | pEC50 (human CB1 receptors)
1 | NC(=O)[C@H]1N(C(=O)c2ccc(N3CC(F)(F)C3)c(OCC3CC3)n2)CCC12CC2 [Example 152, (+)-5-[6-(Cyclopropylmethoxy)-5-(3,3-difluoroazetidin-1-yl)pyridine-2-carbonyl]-5-azaspiro[2.4]heptane-4-carboxamide] | 6.47 | < 5.00
2 | NC(=O)[C@@H]1CSCN1C(=O)c1ccc(C2CC2)c(OCC2CC2)n1 [Example 97, (−)-3-(5-Cyclopropyl-6-cyclopropylmethoxy-pyridine-2-carbonyl)-thiazolidine-4-carboxylic acid amide] | 7.14 | < 5.00
3 | CN(C(=O)c1ccc(C2CC2)c(OCC2CCCO2)n1)C(C)(C)C (stereo not drawn) [Example 4, 5-Cyclopropyl-6-(tetrahydro-furan-2-ylmethoxy)-pyridine-2-carboxylic acid tert-butyl-methyl-amide] | 8.07 | < 5.00
4 | O=C(c1ccc(C2CC2)c(OCC2CC2)n1)N1CCC(CO)(C(F)(F)F)C1 (stereo not drawn) [Example 142, [5-Cyclopropyl-6-(cyclopropylmethoxy)pyridin-2-yl]-[3-(hydroxymethyl)-3-(trifluoromethyl)pyrrolidin-1-yl]methanone] | 7.58 | < 5.00
5 | CCC1(CC)C(=O)NCCN1C(=O)c1ccc(N2CC(F)(F)C2)c(OCC2CC2)n1 [Example 29, 4-[6-Cyclopropylmethoxy-5-(3,3-difluoro-azetidin-1-yl)-pyridine-2-carbonyl]-3,3-diethyl-piperazin-2-one] | 6.38 | < 5.00
6 | CC(C)(C)OC(=O)N1CCC2(CCCN2C(=O)c2ccc(N3CC(F)(F)C3)c(OCC3CC3)n2)CC1 [Example 74, 1-[6-Cyclopropylmethoxy-5-(3,3-difluoro-azetidin-1-yl)-pyridine-2-carbonyl]-1,8-diaza-spiro[4.5]decane-8-carboxylic acid tert-butyl ester] | 7.94 | < 5.00
7 | O=C(c1ccc(N2CC(F)(F)C2)c(OCC2CC2)n1)N1CC2(C1)CS(=O)(=O)C2 [Example 71, [6-Cyclopropylmethoxy-5-(3,3-difluoro-azetidin-1-yl)-pyridin-2-yl]-(2,2-dioxo-2λ6-thia-6-aza-spiro[3.3]hept-6-yl)-methanone] | 6.35 | < 5.00
8 | CC(=O)N1CCC(N(C(=O)c2ccc(N3CC(F)(F)C3)c(OCC3CC3)n2)C2CC2)CC1 [Example 50, 6-Cyclopropylmethoxy-5-(3,3-difluoro-azetidin-1-yl)-pyridine-2-carboxylic acid (1-acetyl-piperidin-4-yl)-cyclopropyl-amide] | 6.62 | < 5.00
9 | CC1(C)C[C@H](C(N)=O)N(C(=O)c2ccc(C3CC3)c(OCC3CC3)n2)C1 [Example 94, (+)-1-(5-Cyclopropyl-6-cyclopropylmethoxy-pyridine-2-carbonyl)-4,4-dimethyl-pyrrolidine-2-carboxylic acid amide] | 7.10 | < 5.00
10 | CN(C=O)C(=O)c1ccc(N2CC(F)(F)C2)c(OCC2CC2)n1 [Example 51, 6-(Cyclopropylmethoxy)-5-(3,3-difluoroazetidin-1-yl)-N-formyl-N-methylpyridine-2-carboxamide] | 6.10 | < 5.00
11 | CNC(=O)CN(C(=O)c1ccc(N2CC(F)(F)C2)c(OCC2CC2)n1)C(C)(C)C [Example 26, 6-Cyclopropylmethoxy-5-(3,3-difluoro-azetidin-1-yl)-pyridine-2-carboxylic acid tert-butyl-methylcarbamoylmethyl-amide] | 6.51 | < 5.00
12 | COC[C@H]1CCCN1C(=O)c1ccc(N2CC(F)(F)C2)c(OCC2CC2)n1 [Example 46, [6-Cyclopropylmethoxy-5-(3,3-difluoro-azetidin-1-yl)-pyridin-2-yl]-((R)-2-methoxymethyl-pyrrolidin-1-yl)-methanone] | 6.44 | < 5.00
13 | NC(=O)[C@@H]1C[C@@H](F)CN1C(=O)c1ccc(N2CC(F)(F)C2)c(OCC2CC2)n1 [Example 126, (2S,4R)-1-[6-(Cyclopropylmethoxy)-5-(3,3-difluoroazetidin-1-yl)pyridine-2-carbonyl]-4-fluoropyrrolidine-2-carboxamide] | 7.40 | < 5.00
14 | NC(=O)C1C[S+]([O-])CN1C(=O)c1ccc(N2CC(F)(F)C2)c(OCC2CC2)n1 (stereo not drawn) [Example 124, 3-[6-(Cyclopropylmethoxy)-5-(3,3-difluoroazetidin-1-yl)pyridine-2-carbonyl]-1-oxo-1,3-thiazolidine-4-carboxamide] | 7.28 | < 5.00
15 | CC1(C)COCN1C(=O)c1ccc(OC(F)(F)F)c(OCC2CC2)n1 [Example 48, (6-Cyclopropylmethoxy-5-trifluoromethoxy-pyridin-2-yl)-(4,4-dimethyl-oxazolidin-3-yl)-methanone] | 6.97 | < 5.00
16 | CN(C(=O)c1ccc(N2CC(F)(F)C2)c(OCC2CC2)n1)C(C)(C)C [Example 1, 6-Cyclopropylmethoxy-5-(3,3-difluoro-azetidin-1-yl)-pyridine-2-carboxylic acid tert-butyl-methyl-amide] | 8.34 | < 5.00
17 | COC(=O)C1CCCN1C(=O)c1ccc(N2CC(F)(F)C2)c(OCC2CC2)n1 (stereo not drawn) [Example 108, 1-[6-Cyclopropylmethoxy-5-(3,3-difluoro-azetidin-1-yl)-pyridine-2-carbonyl]-pyrrolidine-2-carboxylic acid methyl ester] | 6.81 | < 5.00
18 | NC(=O)C1CSCN1C(=O)c1ccc(N2CC(F)(F)C2)c(OCC2CC2)n1 (stereo not drawn) [Example 122, 3-[6-Cyclopropylmethoxy-5-(3,3-difluoro-azetidin-1-yl)-pyridine-2-carbonyl]-thiazolidine-4-carboxylic acid amide] | 7.30 | < 5.00
19 | O=C(c1ccc(N2CC(F)(F)C2)c(OCC2CC2)n1)N1CCC(O)(C(F)(F)F)C1 (stereo not drawn) [Example 138, [6-(Cyclopropylmethoxy)-5-(3,3-difluoroazetidin-1-yl)pyridin-2-yl]-[3-hydroxy-3-(trifluoromethyl)pyrrolidin-1-yl]methanone] | 7.08 | < 5.00
20 | CN1C(=O)CN(C(=O)c2ccc(N3CC(F)(F)C3)c(OCC3CC3)n2)[C@@H]1C(C)(C)C [Example 56, (R)-2-tert-Butyl-1-[6-cyclopropylmethoxy-5-(3,3-difluoro-azetidin-1-yl)-pyridine-2-carbonyl]-3-methyl-imidazolidin-4-one] | 7.43 | < 5.00
21 | CC(C)CS(=O)(=O)c1nc(C(=O)N2COCC2(C)C)ccc1C1CC1 [Example 31, [5-Cyclopropyl-6-(2-methyl-propane-1-sulfonyl)-pyridin-2-yl]-(4,4-dimethyl-oxazolidin-3-yl)-methanone] | 7.09 | < 5.00
22 | NC(=O)C1CS(=O)(=O)CN1C(=O)c1ccc(N2CC(F)(F)C2)c(OCC2CC2)n1 (stereo not drawn) [Example 125, 3-[6-(Cyclopropylmethoxy)-5-(3,3-difluoroazetidin-1-yl)pyridine-2-carbonyl]-1,1-dioxo-1,3-thiazolidine-4-carboxamide] | 8.02 | < 5.00
23 | O=C(c1ccc(N2CC(F)(F)C2)c(OCC2CC2)n1)N1CCC12COC2 [Example 10, [6-Cyclopropylmethoxy-5-(3,3-difluoro-azetidin-1-yl)-pyridin-2-yl]-(6-oxa-1-aza-spiro[3.3]hept-1-yl)-methanone] | 6.18 | < 5.00
24 | CC1(C)C[C@@H](C(N)=O)N(C(=O)c2ccc(C3CC3)c(OCC3CC3)n2)C1 [Example 95, (−)-1-(5-Cyclopropyl-6-cyclopropylmethoxy-pyridine-2-carbonyl)-4,4-dimethyl-pyrrolidine-2-carboxylic acid amide] | 7.98 | < 5.00
25 | CN(C(=O)c1ccc(C2CC2)c(OCC2CC2)n1)C(C)(C)C [Example 3, 5-Cyclopropyl-6-cyclopropylmethoxy-pyridine-2-carboxylic acid tert-butyl-methyl-amide] | 8.14 | < 5.00
26 | CC(C)CS(=O)(=O)c1nc(C(=O)N(C)C(C)(C)C)ccc1C1CC1 [Example 6, 5-Cyclopropyl-6-(2-methyl-propane-1-sulfonyl)-pyridine-2-carboxylic acid tert-butyl-methyl-amide] | 6.98 | < 5.00
27 | O=C(c1ccc(C2CC2)c(OCC2CC2)n1)N1CCC(O)(C(F)(F)F)C1 (stereo not drawn) [Example 143, [5-Cyclopropyl-6-(cyclopropylmethoxy)pyridin-2-yl]-[3-hydroxy-3-(trifluoromethyl)pyrrolidin-1-yl]methanone] | 7.06 | < 5.00
